According to paper PMC8463443 (Acta Pharmaceutica Sinica. B, 2021):
Where no end group is shown, it is not given here.

Columns and labels:
[1] = tested on: monkey kidney cell line Vero E6; experiment: Cell viability, Vero E6; type: cell-based; details: monkey kidney cell line Vero E6 (Fig. S6)
[2] = Water solubility of peptide; type: physicochemical; details: in words, method not given

Q: What does the source list for KLTFLEYWAQLMQK [M3-2K]?
A: effect on viability of Vero E6 [1]: neither PMI-2K nor M3-2K had any effect on the viability; water solubility [2]: improved peptide solubility
